# Legend:
# [1] = comparison surfactants, conditions not given; cited from earlier work
# [2] = test system: Escherichia coli ATCC 8739, Pseudomonas aeruginosa ATCC 15442, Staphylococcus aureus ATCC 6538, Propionibacterium acnes MTCC 1951, Candida albicans ATCC 10231 …; assay: Preservative challenge test according to PCPC protocol; type: cell-based, bacteria, yeast and mold
# Excerpt: The preservative efficacy of the compounds of Formula I has been tested in surfactant formulations typically containing anionic surfactant with pH ranging for 4 to 8.0. The personal care and home care formulations (body wash, shampoo, skin-cream and dish wash) are preserved with 1.0 to 2.0% of compounds of Formula I. The details of formulations are given in Examples 4, 5, 6, 7, 8, 9, and 10. The above formulations pass the challenge test performed according to PCPC protocol using Escherichia coli ATCC 8739, Pseudomonas aeruginosa ATCC 15442 (Gram −ve bacteria), Staphylococcus aureus ATCC 6538, Propionibacterium acnes MTCC 1951, (Gram +ve) Candida albicans ATCC 10231, Malassezia furfur MTCC 1374 (yeast) and Aspergillus niger ATCC 16404 (mold) The formulations pass the challenge test criteria for both bacteria and fungi.
# The above formulations (Example 4, 5, 6, 7, 8, 9 & 10) pass the challenge test performed according to PCPC protocol using Escherichia coli ATCC 8739, Pseudomonas aeruginosa ATCC 15442 (Gram −ve bacteria), Staphylococcus aureus ATCC 6538, Propionibacterium acnes MTCC 1951, (Gram +ve) Candida albicans ATCC 10231, Malassezia furfur MTCC 1374 (yeast) and Aspergillus niger ATCC 16404 (mold).
compound,measurement,setting,value
"CCCCCCCCCCCC[N+](CCC(=O)OC)(CCC(=O)OC)Cc1ccccc1.[Cl-] [N-Lauryl, N,N-Dimethyldipropionate Benzyl Ammonium Chloride]",MIC (%),E coli,0.3%
same,MIC (%),C. albicans,0.4%
same,MIC (%),Pseudomonas sp,0.5%
same,MIC (%),Aspergillus niger,0.2%
same,MIC (%),M furfur,0.5%
same,MIC (%),S aureus,0.5%
same,MIC (%),P acne,0.4%
CCCCCCCCCCCCOS(=O)(=O)[O-].[Na+] [sodium lauryl sulphate],CMC,[1],8.0 mmol/L
"N-Alkyl, N,N-dimethyl, N-benzyl ammonium chloride [Benzalkonium chloride]",challenge test,"[2]; 10% SLES preserved with 1% of the substance, PCPC protocol",failed to pass
same,antimicrobial activity in the presence of anionic surfactant,[2]; used at 10000 ppm,does not exhibit any antimicrobial activity
cocoamidopropyl betaine,CMC,[1],0.05 mmol/L

# Source: US10259774B1, “Antimicrobials for preservation of home and personal care products” (GALAXY SURFACTANTS LTD., priority 2018, dated 2019)
